{"source": "patent US6239132A", "about": "“Thrombin inhibitors” (Merck & Co., Inc., priority 2000, dated 2001)", "note": "pKi: −log10 of the molar value."}
{"target": "human α-thrombin (Homo sapiens, UniProt P00734)", "experiment": "In vitro assay for determining proteinase inhibition: human α-thrombin", "type": "biochemical", "settings": "25° C., 0.05M TRIS buffer pH 7.4, 0.15M NaCl, 0.1% PEG; sar-PR-pna (or Z-GPR-afc for potent inhibitors); read-out: Inhibitory activity (Ki)", "method": "Examples of this group are listed below in Table 1. […] Values are as determined according to the in vitro assay described later in the specification.\nIn Vitro Assay for Determining Proteinase Inhibition\nAssays of human α-thrombin and human trypsin were performed by the methods substantially as described in Thrombosis Research, Issue No. 70, page 173 (1993) by S. D. Lewis et al.\nThe assays were carried out at 25° C. in 0.05M TRIS buffer pH 7.4, 0.15M NaCl, 0.1% PEG. Trypsin assays also contained 1 mM CaCl2.\nConcentrations of stock solutions of Z-GPR-afc were determined from measurements of absorbance at 380 nm of the 7-amino-4-trifluoromethyl coumarin produced upon complete hydrolysis of an aliquot of the stock solution by thrombin.\nTimes required to achieve equilibration between enzyme and inhibitor were determined in control experiments. Initial velocities of product formation in the absence (Vo) or presence of inhibitor (Vi) were measured. Assuming competitive inhibition, and that unity is negligible compared Km /[S], […] (where [S], [I], and e respectively represent the total concentrations, of substrate, inhibitor and enzyme), the equilibrium constant (Ki) for dissociation of the inhibitor from the enzyme can be obtained from the dependence of Vo /Vi on [I] shown in equation 1: […]"}
{"compound": "Cc1cc2c(c(=O)n1CC(=O)NCc1cc3cc[nH]c3cn1)NC(=O)OC2(C)C", "pKi": "> 7.00"}
{"compound": "Cc1cc2c(c(=O)n1CC(=O)NCc1cc3cc[nH]c3cn1)NC(=O)OC2(CC1CC1)CC1CC1", "pKi": "> 7.00"}
{"compound": "CCC1(CC)OC(=O)Nc2c1cc(C)n(CC(=O)NCc1ccc(N)nc1C)c2=O", "pKi": "> 7.00"}
{"compound": "Cc1cc2c(c(=O)n1CC(=O)NCc1cccc(Cl)c1)NC(=O)OC2(C(C)C)C(C)C", "pKi": "> 7.00"}
